Converted amounts (≈) assume the structure as drawn. Like-named read-outs stand apart in the source and are kept apart here. No end group written: not given here.
What was measured:
[1] = tested on: human breast malignant carcinoma cell line MCF-7; type: cell-based; settings: 24 hours, maximum 200 μg/ml
Experimental: (§1) The cytotoxic effects of the peptides on different human tumour cells were measured using the MTT colorimetric assay (Mosmann, 1983). […] Dissolved MIT is converted to an insoluble purple formazan by cleavage of the tetrazolium ring by dehydrogenase enzymes. This water insoluble formazan can be solubilized using isopropanol or other solvents and the dissolved material is measured spectrophotometrically. The absorbance was measured as a function of concentration of converted dye. The conversion of the soluble dye to the insoluble purple formazan is utilized in assays for measurement of cell proliferation. […] We used this assay to measure the degree of cell death caused by the peptides. MCF-7 was maintained in EMEM, A2058 in DMEM and […]-29 in RPMI-1640 medium supplemented with 10% heat inactivated […] and 1% L-glutamine-L-alanine in a humidified atmosphere of 5% CO2 at 37° C. The human embryonic fibroblast cell line, MRC-5 (which is normal fibroblasts), was cultured as a monolayer in MEM medium, under the same conditions as described for the tumour cell lines. Cells to be used in the assay were grown to a minimum of 75% confluency, trypsinated and split to single cell suspension, counted and centrifuged at 1500 rpm for 10 min. The cell pellet was resuspended to a concentration of 2×10^5 cells/ml (HT-29) or 1×10^5 (MRC-5, MCF7 and A2058) in DMEM without FBS and L-glutamine-L-alanine (assay-medium). All cell lines were routinely tested for mycoplasma infection using a PCR-based mycoplasma detection kit (MycoSensor PCR Assay Kit, Stratagene), following the supplier's instructions. All cell lines were mycoplasma free. The cytotoxicity was measured using the MTT method (Mosmann, 1983), with minor modifications. Different human tumour cells (1-2×10^5) were applied in 96-well culture plates in a volume of 100 μl DMEM medium and incubated at 37° C. for 24 hours. The medium was removed and the cells were treated with 100 μl of peptide solution (concentrations ranging from 0 to 200 μg/ml), diluted in a) RPMI-1640 medium supplemented with 5% heat inactivated FBS, or b) RPMI-1640 medium without FBS. The plates were incubated at 37° C. for 24 hours. Cells treated with Triton X-100 (1%) was used as positive control (100% killing) whereas cells plus medium only were used as negative control. […] A volume of 70 μl of the supernatant was then removed and […] (0.04 M HCl in isopropanol) added to each well. The plate was placed on a shaker for 1 hour at room temperature and read spectrophotometrically at 590 nm in a microtiter plate reader (DTX880 Multimode Detector, Beckman Coulter).

[2] = tested on: human embryonic lung fibroblast cell line MRC-5; type: cell-based; settings: normal fibroblasts, 24 hours, maximum 200 μg/ml
Experimental: as §1

[3] = tested on: human colorectal adenocarcinoma cell line HT-29; type: cell-based; settings: 24 hours, maximum 200 μg/ml
Experimental: as §1

[4] = tested on: human skin malignant melanoma cell line A2058; type: cell-based; settings: 24 hours, maximum 200 μg/ml
Experimental: as §1

E. coli = type: cell-based, Escherichia coli; settings: lowest concentration causing optical density less than 50% of growth control
Experimental: (§2) The Gram-negative bacteria Listonella (Vibrio) anguillarum, serotype O2 (FT 1801, also coded as AL 104/LFI 6004), originally isolated from Atlantic salmon by staff of the Norwegian Veterinary Institute (Oslo, Norway), Escherichia con (ATCC 25922), and the Gram-positive bacteria Staphylococcus aureus (ATCC 9144) and Corynebacterium glutamicum (ATCC 13032) were used as test organisms. All isolates were grown at room temperature in Mueller Hinton Broth (MBB; Difco Laboratories, Detroit, U.S.A).
(§3) The antibacterial activities of the obtained HPLC fractions were determined by continuous monitoring of bacterial growth with a Bioscreen C microbiology reader (Labsystems Oy, Helsinki, Finland). The test was performed in 100-well flat-bottomed honeycomb plates, in which […] of test fractions were incubated with 50 μl of a suspension of an actively growing culture of bacteria diluted to a starting concentration of 5×10^3 cells per well. The growth chamber was maintained at 20° C. during the incubation period. The absorbance was measured at 2 h intervals for 48 h by a turbidometric method with vertical light photometry and a wide band filter (420-580 nm), which is more insensitive to colour change in the sample compared to single wavelength detection. Cecropin P1(0.5 μg/ml) was used as a positive control during these experiments. Antibacterial activity was determined when the optical density (OD) of the growth control (bacteria plus water) reached an absorbance of approximately 0.3. Fractions were regarded as active when the OD was less than 50% of the growth control.
(§4) The polypeptides of the present invention were isolated and subsequently tested for activity. A serial dilution method was employed to examine the antibacterial activity of the peptides. Two Gram-negative bacteria, L. anguillarum and E. coli, and two Gram-positive bacteria, C. glutamicum and S. aureus, were chosen as test bacteria. The polypeptides of the present invention were active against both Gram-positive and Gram-negative bacteria (table 4).

C. glutamicum = type: cell-based, Corynebacterium glutamicum; settings: lowest concentration causing optical density less than 50% of growth control
Experimental: as §2, §3, §4

S. aureus = type: cell-based, Staphylococcus aureus; settings: lowest concentration causing optical density less than 50% of growth control
Experimental: as §2, §3, §4

L. anguillarum = type: cell-based, Listonella (Vibrio) anguillarum; settings: lowest concentration causing optical density less than 50% of growth control
Experimental: as §2, §3, §4

Klebsiella K15-72 = type: cell-based; settings: clinical isolate; 37° C.; 3×10^6 cells per ml
Experimental: (§5) The antibacterial activities of the different peptides were determined by continuous monitoring of bacterial growth with a Bioscreen C microbiology reader (Labsystems Oy, Helsinki, Finland). The test was performed in 100-well flat-bottomed honeycomb plates, in which 50 μl of test fractions were incubated with 50 μl of a suspension of an actively growing culture of bacteria diluted in Mueller Hinton medium to a starting concentration of 3×10^4 cells per ml. The Gram-negative bacteria, Listonella (Vibrio) anguillarum, serotype O2 (FT 1801, a fish pathogenic strain), Pseudomonas aeruginosa and E. coli (ATCC 25922), and the Gram-positive bacteria, C. glutamicum (ATCC 13032) and S. aureus (ATCC 9144), were chosen as test bacteria. The growth chamber was maintained at either 20 or 37° C. during the incubation period. The absorbance was measured at 2 h intervals for 48 h by a turbidometric method with vertical light photometry and a wide band filter (420-580 nm), which is more insensitive to color change in the sample compared to single wavelength detection. Antibacterial activity was determined when the optical density (OD) of the growth control (bacteria plus water) reached an absorbance of 0.3-0.4. Fractions were regarded as active when the OD was less than 50% of the growth control. Polymyxin B (Sigma, St. Louis, Mo., USA), Lactoferricin B, Cecropin P1 and Hyalophora cecropia Cecropin B were used as reference.
(§6) The antimicrobial molecules were also tested against drug resistant clinical isolates, such as the commonly encountered multi-resistant human pathogen S. aureus (MRSA) K15-64 and the glycopeptide (vancomycin)-resistant Enterococccus faecium (GREF) K9-28. The non-clinical isolates Escherichia coli (ATCC 25922), Pseudomonas aeruginosa (ATCC 27853), Corynebacterium glutamicum (ATCC 13032), and Staphylococcus aureus (ATCC 9144) were also tested for comparison. Serial dilutions of synthetic peptides were made in double distilled water and tested according to the method described above. However, in these experiments the starting concentration of bacteria were 3×10^6 cells per ml and the temperature in the growth chamber was 37° C. Polymyxin B was used as positive control for the Gram-negative bacteria.

Escherichia coli, K15-58 = type: cell-based; settings: clinical isolate; 37° C.; 3×10^6 cells per ml
Experimental: as §5, §6

[5] = tested on: Citrobacter freundii, K15-75; type: cell-based; settings: clinical isolate; 37° C.; 3×10^6 cells per ml
Experimental: as §5, §6

Pseudomonas K15-60 = type: cell-based; settings: clinical isolate; 37° C.; 3×10^6 cells per ml
Experimental: as §5, §6

[6] = tested on: Acinetobacter baumannilii, K15-9; type: cell-based; settings: clinical isolate; 37° C.; 3×10^6 cells per ml
Experimental: as §5, §6

Salmonella K14-40 = type: cell-based; settings: clinical isolate; 37° C.; 3×10^6 cells per ml
Experimental: as §5, §6

[7] = RPMI-1640 medium containing 5% FBS

IC50 ([4]; serum-free RPMI-1640 medium, read-out: Antitumoral activity IC50, A2058) | Compound | Antitumoral activity IC50, MCF-7 [1, 7] | Antitumoral activity IC50, MCF-7 ([1]; serum-free RPMI-1640 medium) | IC50, MRC-5 [2, 7] | IC50 ([2]; serum-free RPMI-1640 medium, read-out: IC50, MRC-5) | Antitumoral activity IC50, HT-29 [3, 7] | Antitumoral activity IC50, HT-29 ([3]; serum-free RPMI-1640 medium) | Antitumoral activity IC50, A2058 [4, 7] | Minimal inhibitory concentration (MIC), E. coli (E. coli) | Minimal inhibitory concentration (MIC), C. glutamicum (C. glutamicum) | Minimal inhibitory concentration (MIC), S. aureus (S. aureus) | Minimal inhibitory concentration (MIC), L. anguillarum (L. anguillarum) | Minimal inhibitory concentration, Klebsiella K15-72 (Klebsiella K15-72) | Minimal inhibitory concentration, Escherichia coli, K15-58 (Escherichia coli, K15-58) | Minimal inhibitory concentration, Citrobacter freundii, K15-75 [5] | Minimal inhibitory concentration, Pseudomonas K15-60 (Pseudomonas K15-60) | Minimal inhibitory concentration, Acinetobacter baumannilii, K15-9 [6] | Minimal inhibitory concentration, Salmonella K14-40 (Salmonella K14-40)
655 µM | NC(Cc1c[nH]c2cc(Br)ccc12)C(=O)O [6-D/L-Br-Trp, 6-Bromo-D/L-tryptophan, reference compound] | * (The symbol “*” denotes 30-50% killing at the highest concentration tested.) | * (The symbol “*” denotes 30-50% killing at the highest concentration tested.) | * (The symbol “*” denotes 30-50% killing at the highest concentration tested.) | 584 µM | * (The symbol “*” denotes 30-50% killing at the highest concentration tested.) | * (The symbol “*” denotes 30-50% killing at the highest concentration tested.) | * (The symbol “*” denotes 30-50% killing at the highest concentration tested.) | – | – | – | – | – | – | – | – | – | –
– | CC[C@H](C)[C@@H]1NC(=O)[C@H](CO)NC(=O)[C@@H]2CCCN2C(=O)[C@H](C)NC(=O)CNC(=O)[C@H](CC(C)C)NC(=O)[C@H](CCCCN)NC(=O)[C@H](CCCCN)NC(=O)[C@H](CCSC)NC(=O)[C@H](CCCNC(=N)N)NC(=O)[C@H](Cc2c[nH]c3ccccc23)NC(=O)[C@H](CCC(N)=O)NC(=O)[C@H](Cc2c[nH]c3ccccc23)NC(=O)[C@H](CCCNC(=N)N)NC(=O)[C@H](CCCNC(=N)N)NC(=O)[C@@H](NC(=O)[C@H](CCCCN)NC(=O)[C@@H](N)Cc2ccccc2)CSSC[C@@H](C(=O)N[C@H](C(=O)N[C@@H](CCCNC(=N)N)C(=O)N[C@@H](CCCNC(=N)N)C(=O)N[C@@H](C)C(=O)N[C@@H](Cc2ccccc2)C(=O)O)C(C)C)NC(=O)[C@H]([C@@H](C)O)NC1=O [Lactoferricin B] | – | – | – | – | – | – | – | 3.1 µM (≈ 9.68 µg/mL) | 1.6 µM (≈ 5 µg/mL) | 6.3 µM (≈ 19.7 µg/mL) | 3.1 µM (≈ 9.68 µg/mL) | – | – | – | – | – | –
– | P20: dimeric polypeptide from S. droebachiensis coelomocytes: first monomer SEQIDNO7, second monomer SEQIDNO8 (chain 1 SXFSRTVHNVGNAVRKGIHAGQGVCSGLGL; chain 2 DLRAICAGAHAL; not fully specified (bridges); X: residue not identified in the source; cysteine pairing not given here; also: heterodimer of two chains; listed as Strongylocentrotus droebachiensis) [Peptide P20] | – | – | – | – | – | – | – | 2.5 µM | 1.3 µM | 5.0 µM | 2.5 µM | – | – | – | – | – | –
– | Polymyxin B [reference compound] | – | – | – | – | – | – | – | 0.8 µM | 1.6 µM | 6.3 µM | 0.8 µM | 6.25 µM | 3.12 µM | 0.78 µM | 3.12 µM | 0.78 µM | 3.12 µM
